# Data taken from article PMC6327987, “Synthesis and biological evaluation of novel N^9-heterobivalent β-carbolines as angiogenesis inhibitors” (Journal of Enzyme Inhibition and Medicinal Chemistry, 2019).
# Read-outs that look alike come from different tables or passages of the source.
# Key:
# BGC-823 = assay: MTT cytotoxicity, gastric carcinoma cells; type: cell-based; details: MTT assay, gastric carcinoma BGC-823, mean ± SD of at least three determinations
# Description: (§1) Target compounds were assayed by the MTT method for cytotoxic activity, as described previously. The panel of cell lines included gastric carcinoma (BGC-823), liver carcinoma (HepG2), breast carcinoma (MCF-7), colon carcinoma (HT-29), esophageal carcinoma (Eca-109), and Lewis lung carcinoma (LLC). Growth inhibition rates were calculated with the following equitation: Inhibition ratio (%)= ODcompd−ODblank/ODDMSO−ODblank×100% . Half maximal inhibitory concentration (IC50) of each compound was calculated using software Graph-Pad Prism (version 6.0).
# (§2) All the 24 novel synthesized N^9-heterobivalent β-carbolines (5a-x) were screened for their in vitro cytotoxic activities against six different cancer cell lines, namely BGC-823 (gastric carcinoma), HepG2 (liver carcinoma), MCF-7 (breast carcinoma), HT-29 (colon carcinoma), Eca-109 (esophageal carcinoma) and LLC (Lewis lung carcinoma). The IC50 values were the average of at least three independent experiments.
# HepG2 = assay: MTT cytotoxicity, liver carcinoma cells; type: cell-based; details: MTT assay, liver carcinoma HepG2, mean ± SD of at least three determinations
# Description: as §1, §2
# MCF-7 = assay: MTT cytotoxicity, breast carcinoma cells; type: cell-based; details: MTT assay, breast carcinoma MCF-7, mean ± SD of at least three determinations
# Description: as §1, §2
# HT-29 = assay: MTT cytotoxicity, colon carcinoma cells; type: cell-based; details: MTT assay, colon carcinoma HT-29, mean ± SD of at least three determinations
# Description: as §1, §2
# Eca-109 = assay: MTT cytotoxicity, esophageal carcinoma cells; type: cell-based; details: esophageal carcinoma Eca-109, mean ± SD of at least three determinations
# Description: as §1, §2
# LLC = assay: MTT cytotoxicity, Lewis lung carcinoma cells; type: cell-based; details: MTT assay, mean ± SD of at least three determinations
# Description: as §1, §2
# [1] = Homo sapiens, ECa-109, MTT assay
SMILES,IC50 (BGC-823; Homo sapiens) [µM],IC50 (HepG2; Homo sapiens) [µM],"IC50 (MCF-7; Homo sapiens, MCF7) [µM]",IC50 (HT-29; Homo sapiens) [µM],IC50 (Eca-109; [1]) [µM],IC50 (LLC; Lewis lung carcinoma) [µM],melting point [°C],IC50 (Eca-109; MTT assay) [µM],IC50 (LLC) [µM],IC50 (BGC-823) [µM],IC50 (HepG2) [µM],IC50 (MCF-7; read-out: IC50 (μM) ±SD MCF7) [µM],IC50 (HT-29) [µM]
"Clc1ccccc1-c1nccc2c3ccccc3n(CCCCn3c4ccccc4c4ccnc(-c5cccs5)c43)c12 [Compound 5r, 1–(2-chlorophenyl)-9–(4-(1–(2-thienyl)-β-carboline-9-yl)butyl)-β-carboline]",> 100,> 100,60.7 ± 4.8,96.2 ± 5.1,96.7 ± 11.9,> 100,225.4 to 227.2,–,–,–,–,–,–
"c1csc(-c2nccc3c4ccccc4n(CCCCn4c5ccccc5c5ccncc54)c23)c1 [Compound 5e, 1–(2-thienyl)-9–(4-(β-carboline-9-yl)butyl)-β-carboline]",> 100,> 100,> 100,18.1 ± 3.6,> 100,32.3 ± 4.5,141.6 to 143.1,–,–,–,–,–,–
"COc1ccc2c3ccnc(C)c3n(CCCCCn3c4ccccc4c4ccnc(-c5cccnc5)c43)c2c1 [Compound 5v, 7-methoxy-1-methyl-9–(5-(1–(3-pyridyl)-β-carboline-9-yl)pentyl)-β-carboline]",23.2 ± 1.5,31.1 ± 3.4,18.7 ± 0.5,13.5 ± 2.2,13.2 ± 3.6,11.8 ± 1.8,183.6 to 184.9,–,–,–,–,–,–
"COc1ccc(-c2nccc3c4ccccc4n(CCCCn4c5ccccc5c5ccnc(-c6cccnc6)c54)c23)cc1 [Compound 5k, 1–(4-methoxyphenyl)-9–(4-(1–(3-pyridyl)-β-carboline-9-yl)butyl)-β-carboline]",> 100,> 100,> 100,> 100,> 100,> 100,241.2 to 242.4,–,–,–,–,–,–
"c1cncc(-c2nccc3c4ccccc4n(CCCCn4c5ccccc5c5ccncc54)c23)c1 [Compound 5a, 1–(3-pyridyl)-9–(4-(β-carboline-9-yl)butyl)-β-carboline]",> 100,39.1 ± 5.4,> 100,> 100,> 100,> 100,173.3 to 175.1,–,–,–,–,–,–
"Cc1nccc2c3ccccc3n(CCCCn3c4ccccc4c4ccnc(-c5cccs5)c43)c12 [Compound 5f, 1–(2-thienyl)-9–(4-(1-methyl-β-carboline-9-yl)butyl)-β-carboline]",38.8 ± 2.9,> 100,46.6 ± 4.8,56.1 ± 4.2,64.1 ± 7.6,–,214.8 to 216,–,–,–,–,–,–
"Cc1nccc2c3ccccc3n(CCCCCCn3c4ccccc4c4ccnc(-c5cccnc5)c43)c12 [Compound 5d, 1–(3-pyridyl)-9–(6-(1-methyl-β-carboline-9-yl)hexyl)-β-carboline]",> 100,> 100,> 100,> 100,< 20,< 20,141.3 to 142.9,18.9 ± 3.1,14.5 ± 0.9,–,–,–,–
"Cc1nccc2c3ccccc3n(CCCCCn3c4ccccc4c4ccnc(-c5ccccc5Cl)c43)c12 [Compound 5j, 1–(2-chlorophenyl)-9–(5-(1-methyl-β-carboline-9-yl)pentyl)-β-carboline]",> 100,> 100,46.8 ± 3.7,24.1 ± 2.2,< 20,< 20,169.1 to 171.2,18.6 ± 2.1,16.6 ± 3.1,–,–,–,–
"COc1ccc2c3ccnc(C)c3n(CCCCn3c4ccccc4c4ccnc(-c5cccnc5)c43)c2c1 [Compound 5u, 7-methoxy-1-methyl-9–(4-(1–(3-pyridyl)-β-carboline-9-yl)butyl)-β-carboline]",39.1 ± 2.4,26.8 ± 2.8,23.9 ± 0.7,15.1 ± 3.1,25.2 ± 5.5,12.2 ± 2.3,163.8 to 164.5,–,–,–,–,–,–
"N.N.[Cl][Pt][Cl] [Cisplatin, reference compound]",–,–,–,–,–,–,–,8.9 ± 0.6,7.6 ± 0.4,11.6 ± 0.7,14.8 ± 0.4,12.4 ± 0.7,26.8 ± 1.4
"COc1ccc(-c2nccc3c4ccccc4n(CCCCn4c5ccccc5c5ccnc(-c6cccs6)c54)c23)cc1 [Compound 5o, 1–(4-methoxyphenyl)-9–(4-(1–(2-thienyl)-β-carboline-9-yl)butyl)-β-carboline]",> 100,> 100,> 100,> 100,> 100,96.8 ± 9.8,232.5 to 233.3,–,–,–,–,–,–
"COc1ccc(-c2nccc3c4ccccc4n(CCCCn4c5ccccc5c5ccnc(-c6cccnc6)c54)c23)cc1OC [Compound 5l, 1–(3,4-dimethoxyphenyl)-9–(4-(1–(3-pyridyl)-β-carboline-9-yl)butyl)-β-carboline]",> 100,79.5 ± 12.3,> 100,91.1 ± 10.6,93.2 ± 7.1,46.8 ± 6.4,239.8 to 240.5,–,–,–,–,–,–
"Cc1nccc2c3ccccc3n(CCCCCCn3c4ccccc4c4ccnc(-c5cccs5)c43)c12 [Compound 5h, 1–(2-thienyl)-9–(6-(1-methyl-β-carboline-9-yl)hexyl)-β-carboline]",> 100,> 100,75.9 ± 9.4,47.8 ± 6.5,30.2 ± 3.4,30.2 ± 1.5,238.5 to 239.6,–,–,–,–,–,–
"COc1ccc(-c2nccc3c4ccccc4n(CCCCn4c5ccccc5c5ccnc(-c6cccs6)c54)c23)cc1OC [Compound 5p, 1–(3,4-dimethoxyphenyl)-9–(4-(1–(2-thienyl)-β-carboline-9-yl)butyl)-β-carboline]",> 100,> 100,> 100,> 100,> 100,> 100,217.2 to 218.4,–,–,–,–,–,–
"COc1cc(-c2nccc3c4ccccc4n(CCCCn4c5ccccc5c5ccnc(-c6cccs6)c54)c23)cc(OC)c1OC [Compound 5q, 1–(3,4,5-trimethoxyphenyl)-9–(4-(1–(2-thienyl)-β-carboline-9-yl)butyl)-β-carboline]",> 100,> 100,> 100,> 100,> 100,> 100,226.5 to 227.8,–,–,–,–,–,–
"COc1cc(-c2nccc3c4ccccc4n(CCCCn4c5ccccc5c5ccnc(-c6cccnc6)c54)c23)cc(OC)c1OC [Compound 5m, 1–(3,4,5-trimethoxyphenyl)-9–(4-(1–(3-pyridyl)-β-carboline-9-yl)butyl)-β-carboline]",> 100,85.1 ± 11.6,> 100,> 100,70.9 ± 8.4,> 100,231 to 232.3,–,–,–,–,–,–
"COc1ccc2c3ccnc(C)c3n(CCCCn3c4ccccc4c4ccnc(C)c43)c2c1 [Compound 5s, 7-methoxy-1-methyl-9–(4-(1-methyl-β-carboline-9-yl)butyl)-β-carboline]",17.9 ± 1.1,37.6 ± 5.8,36.4 ± 2.1,11.1 ± 0.8,11.3 ± 2.7,6.2 ± 0.6,188.7 to 189.4,–,–,–,–,–,–
"Clc1ccccc1-c1nccc2c3ccccc3n(CCCCn3c4ccccc4c4ccnc(-c5cccnc5)c43)c12 [Compound 5n, 1–(2-chlorophenyl)-9–(4-(1–(3-pyridyl)-β-carboline-9-yl)butyl)-β-carboline]",> 100,> 100,86.9 ± 15.3,72.2 ± 5.2,> 100,> 100,177.6 to 178.9,–,–,–,–,–,–
